Measured values taken from the supplement of paper PMC13207355.

Key:
Conditions in all cases: exposure time: 72 h
E13 [1] = patient-derived glioblastoma stem cells of classical subtype; test: surviving fraction (nuclei count normalised to DMSO); higher = more cells surviving (less toxic)
E21 [2] = patient-derived glioblastoma stem cells of mesenchymal subtype; test: as above
E28 [3] = patient-derived glioblastoma stem cells of classical subtype; test: as above
E31 [4] = patient-derived glioblastoma stem cells of proneural subtype; test: as above
E34 [5] = patient-derived glioblastoma stem cells of proneural subtype; test: as above
E57 [6] = patient-derived glioblastoma stem cells of mesenchymal subtype; test: as above
FT3469 [7] = normal neural stem cell line; test: as above
E13 [8] = test: phenotypic distance (Euclidean, principal components) from DMSO controls (arbitrary units); higher = stronger morphological change
E21 [9] = test: as above
E28 [10] = test: as above
E31 [11] = test: as above
E34 [12] = test: as above
E57 [13] = test: as above
FT3469 [14] = test: as above
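For phenotypic distance (Euclidean, principal components) from DMSO controls in this document: cell Painting imaging in 384-well plates, CellProfiler features reduced to at least 20 principal components, Euclidean distance versus same-plate DMSO vehicle wells (0.1% v/v), median over six images per well.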
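For surviving fraction (nuclei count normalised to DMSO) in this document: nuclei counted by high-content imaging of Hoechst-stained cells in laminin-coated 384-well plates, relative to 0.1% DMSO vehicle wells, with staurosporine as cell-death control.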

C[C@@]12C(=O)OC(=O)[C@]1(C)[C@H]1CC[C@@H]2O1 [Cantharidin]
Conditions | phenotypic distance | surviving fraction
E13 [1], 4.1 nM | – | 0.826
E13 [1], 12.3 nM | – | 0.96
E13 [1], 37 nM | – | 0.919
E13 [1], 111.1 nM | – | 0.735
E13 [1], 333.3 nM | – | 0.139
E13 [1], 1000 nM | – | 0.000925
E13 [1], 3000 nM | – | 0
E13 [8], 4.1 nM | 0.99 | –
E13 [8], 12.3 nM | 0.872 | –
E13 [8], 37 nM | 1.04 | –
E13 [8], 111.1 nM | 2.26 | –
E13 [8], 333.3 nM | 7.52 | –
E13 [8], 1000 nM | 22.3 | –
E13 [8], 3000 nM | 22.7 | –
E21 [2], 4.1 nM | – | 0.865
E21 [2], 12.3 nM | – | 1.05
E21 [2], 37 nM | – | 0.984
E21 [2], 111.1 nM | – | 0.819
E21 [2], 333.3 nM | – | 0.148
E21 [2], 1000 nM | – | 0.00198
E21 [2], 3000 nM | – | 0.00297
E21 [9], 4.1 nM | 0.902 | –
E21 [9], 12.3 nM | 0.679 | –
E21 [9], 37 nM | 0.822 | –
E21 [9], 111.1 nM | 2.07 | –
E21 [9], 333.3 nM | 7.76 | –
E21 [9], 1000 nM | 24.2 | –
E21 [9], 3000 nM | 19.8 | –
E28 [3], 4.1 nM | – | 1.04
E28 [3], 12.3 nM | – | 1.01
E28 [3], 37 nM | – | 0.751
E28 [3], 111.1 nM | – | 0.783
E28 [3], 333.3 nM | – | 0.171
E28 [3], 1000 nM | – | 0.0107
E28 [3], 3000 nM | – | 0
E28 [10], 4.1 nM | 0.669 | –
E28 [10], 12.3 nM | 0.782 | –
E28 [10], 37 nM | 1.16 | –
E28 [10], 111.1 nM | 2.74 | –
E28 [10], 333.3 nM | 6.99 | –
E28 [10], 1000 nM | 10.5 | –
E28 [10], 3000 nM | 17.9 | –
E31 [4], 4.1 nM | – | 0.771
E31 [4], 12.3 nM | – | 0.967
E31 [4], 37 nM | – | 0.793
E31 [4], 111.1 nM | – | 0.531
E31 [4], 333.3 nM | – | 0.0179
E31 [4], 1000 nM | – | 0
E31 [4], 3000 nM | – | 0.00163
E31 [11], 4.1 nM | 1.14 | –
E31 [11], 12.3 nM | 0.733 | –
E31 [11], 37 nM | 1.22 | –
E31 [11], 111.1 nM | 2.51 | –
E31 [11], 333.3 nM | 10.8 | –
E31 [11], 1000 nM | 17.7 | –
E31 [11], 3000 nM | 15.6 | –
E34 [5], 4.1 nM | – | 0.848
E34 [5], 12.3 nM | – | 1.05
E34 [5], 37 nM | – | 1.05
E34 [5], 111.1 nM | – | 0.764
E34 [5], 333.3 nM | – | 0.323
E34 [5], 1000 nM | – | 0.0804
E34 [5], 3000 nM | – | 0.0035
E34 [12], 4.1 nM | 0.932 | –
E34 [12], 12.3 nM | 0.828 | –
E34 [12], 37 nM | 0.895 | –
E34 [12], 111.1 nM | 2.91 | –
E34 [12], 333.3 nM | 8.47 | –
E34 [12], 1000 nM | 14.9 | –
E34 [12], 3000 nM | 24.2 | –
E57 [6], 4.1 nM | – | 0.874
E57 [6], 12.3 nM | – | 0.97
E57 [6], 37 nM | – | 0.933
E57 [6], 111.1 nM | – | 0.882
E57 [6], 333.3 nM | – | 0.172
E57 [6], 1000 nM | – | 0.00764
E57 [6], 3000 nM | – | 0.00204
E57 [13], 4.1 nM | 4.16 | –
E57 [13], 12.3 nM | 0.795 | –
E57 [13], 37 nM | 0.509 | –
E57 [13], 111.1 nM | 1.44 | –
E57 [13], 333.3 nM | 7.24 | –
E57 [13], 1000 nM | 9.13 | –
E57 [13], 3000 nM | 24.7 | –
FT3469 [7], 4.1 nM | – | 0.78
FT3469 [7], 12.3 nM | – | 1.06
FT3469 [7], 37 nM | – | 0.835
FT3469 [7], 111.1 nM | – | 0.714
FT3469 [7], 333.3 nM | – | 0.276
FT3469 [7], 1000 nM | – | 0.0288
FT3469 [7], 3000 nM | – | 0.00288
FT3469 [14], 4.1 nM | 1.54 | –
FT3469 [14], 12.3 nM | 0.532 | –
FT3469 [14], 37 nM | 1.22 | –
FT3469 [14], 111.1 nM | 1.87 | –
FT3469 [14], 333.3 nM | 5.81 | –
FT3469 [14], 1000 nM | 10.9 | –
FT3469 [14], 3000 nM | 17.1 | –

C[C@H]1O[C@@H](O[C@H]2[C@@H](O)C[C@H](O[C@H]3[C@@H](O)C[C@H](O[C@H]4CC[C@@]5(C)[C@H](CC[C@@H]6[C@@H]5C[C@@H](O)[C@]5(C)[C@@H](C7=CC(=O)OC7)CC[C@]65O)C4)O[C@@H]3C)O[C@@H]2C)C[C@H](O)[C@@H]1O [Digoxin]
Conditions | phenotypic distance | surviving fraction
E13 [1], 4.1 nM | – | 0.795
E13 [1], 12.3 nM | – | 0.448
E13 [1], 37 nM | – | 0.349
E13 [1], 111.1 nM | – | 0.348
E13 [1], 333.3 nM | – | 0.272
E13 [1], 1000 nM | – | 0.306
E13 [1], 3000 nM | – | 0.266
E13 [8], 4.1 nM | 2.96 | –
E13 [8], 12.3 nM | 3.64 | –
E13 [8], 37 nM | 5.02 | –
E13 [8], 111.1 nM | 5.57 | –
E13 [8], 333.3 nM | 6.42 | –
E13 [8], 1000 nM | 6.06 | –
E13 [8], 3000 nM | 6.15 | –
E21 [2], 4.1 nM | – | 0.854
E21 [2], 12.3 nM | – | 0.676
E21 [2], 37 nM | – | 0.497
E21 [2], 111.1 nM | – | 0.368
E21 [2], 333.3 nM | – | 0.269
E21 [2], 1000 nM | – | 0.266
E21 [2], 3000 nM | – | 0.218
E21 [9], 4.1 nM | 2.11 | –
E21 [9], 12.3 nM | 3.25 | –
E21 [9], 37 nM | 3.77 | –
E21 [9], 111.1 nM | 6.27 | –
E21 [9], 333.3 nM | 6.66 | –
E21 [9], 1000 nM | 5.99 | –
E21 [9], 3000 nM | 6.15 | –
E28 [3], 4.1 nM | – | 0.839
E28 [3], 12.3 nM | – | 0.85
E28 [3], 37 nM | – | 0.696
E28 [3], 111.1 nM | – | 0.628
E28 [3], 333.3 nM | – | 0.491
E28 [3], 1000 nM | – | 0.452
E28 [3], 3000 nM | – | 0.332
E28 [10], 4.1 nM | 1 | –
E28 [10], 12.3 nM | 1.47 | –
E28 [10], 37 nM | 2.1 | –
E28 [10], 111.1 nM | 2.57 | –
E28 [10], 333.3 nM | 2.97 | –
E28 [10], 1000 nM | 3.74 | –
E28 [10], 3000 nM | 2.92 | –
E31 [4], 4.1 nM | – | 0.87
E31 [4], 12.3 nM | – | 0.721
E31 [4], 37 nM | – | 0.47
E31 [4], 111.1 nM | – | 0.403
E31 [4], 333.3 nM | – | 0.36
E31 [4], 1000 nM | – | 0.356
E31 [4], 3000 nM | – | 0.252
E31 [11], 4.1 nM | 2.21 | –
E31 [11], 12.3 nM | 3.02 | –
E31 [11], 37 nM | 4.38 | –
E31 [11], 111.1 nM | 5.51 | –
E31 [11], 333.3 nM | 5.08 | –
E31 [11], 1000 nM | 4.94 | –
E31 [11], 3000 nM | 4.77 | –
E34 [5], 4.1 nM | – | 0.979
E34 [5], 12.3 nM | – | 0.745
E34 [5], 37 nM | – | 0.632
E34 [5], 111.1 nM | – | 0.539
E34 [5], 333.3 nM | – | 0.466
E34 [5], 1000 nM | – | 0.394
E34 [5], 3000 nM | – | 0.293
E34 [12], 4.1 nM | 1.18 | –
E34 [12], 12.3 nM | 3.09 | –
E34 [12], 37 nM | 4.76 | –
E34 [12], 111.1 nM | 5.12 | –
E34 [12], 333.3 nM | 3.77 | –
E34 [12], 1000 nM | 3.7 | –
E34 [12], 3000 nM | 5.72 | –
E57 [6], 4.1 nM | – | 1
E57 [6], 12.3 nM | – | 0.74
E57 [6], 37 nM | – | 0.392
E57 [6], 111.1 nM | – | 0.27
E57 [6], 333.3 nM | – | 0.207
E57 [6], 1000 nM | – | 0.166
E57 [6], 3000 nM | – | 0.112
E57 [13], 4.1 nM | 1.42 | –
E57 [13], 12.3 nM | 3.76 | –
E57 [13], 37 nM | 5.52 | –
E57 [13], 111.1 nM | 5.37 | –
E57 [13], 333.3 nM | 6.22 | –
E57 [13], 1000 nM | 6.34 | –
E57 [13], 3000 nM | 6.45 | –
FT3469 [7], 4.1 nM | – | 0.79
FT3469 [7], 12.3 nM | – | 0.652
FT3469 [7], 37 nM | – | 0.628
FT3469 [7], 111.1 nM | – | 0.686
FT3469 [7], 333.3 nM | – | 0.684
FT3469 [7], 1000 nM | – | 0.577
FT3469 [7], 3000 nM | – | 0.566
FT3469 [14], 4.1 nM | 2.61 | –
FT3469 [14], 12.3 nM | 3.2 | –
FT3469 [14], 37 nM | 4.1 | –
FT3469 [14], 111.1 nM | 3.74 | –
FT3469 [14], 333.3 nM | 3.18 | –
FT3469 [14], 1000 nM | 4.16 | –
FT3469 [14], 3000 nM | 3.8 | –
